In patent US20080261896A1, “Testosterone generating and metabolizing enhancer” (Sinphar Pharmaceutical Co., Ltd., priority 2007, published 2008):

Test system: mouse Leydig tumor cell line R2C
Test: Test 1: testosterone generation of the mouse Leydig tumor cell line R2C (Testosterone EIA kit)
Assay type: cell-based
Settings: R2C cells
From the text: Test 1: Testing testosterone generation of the mouse Leydig tumor cell line R2C.
Materials: The extract of C. tubulosa prepared in the aforesaid first embodiment, and said echinacoside and acteoside used in the second and the third embodiments. The mouse Leydig tumor cell line R2C was obtained from the Japan Health Sciences Foundation (Osaka), and a Testosterone EIA testing kit was used to test testosterone levels.
Method: The R2C cells were subcultured in a cell medium called Ham's F10, which comprised 15% bovine serum, 2.5% fetal bovine serum, 100 units/mL penicillin G, and 100 μg/mL streptomycin. The cells were inoculated on a 24-hole plate at a density of 5×10^5 cells/mL, and 500 μL of the cell medium was added into each hole. After culturing for 24 hours, 50 μL of solutions resulted from dissolving samples from the first to the third embodiments in the same cell medium was added into each hole. After culturing for another 4 fours, the cells were collected along with the cell medium and subjected to centrifugation, so as to collect supernatant that included the cell medium. The Testosterone EIA testing kit (manufactured by Cayman Chemical Corporate) was used to determine testosterone concentrations in the each tested sample, and the results were shown in FIG. 1.

Row | SMILES | testosterone generation (testosterone level in the supernatant) versus control (10 μg/mL) | testosterone generation (testosterone level in the supernatant) versus control (30 μg/mL) | testosterone generation (testosterone level in the supernatant) versus control (100 μg/mL)
1 | C[C@@H]1O[C@@H](O[C@@H]2[C@@H](O)[C@H](OCCc3ccc(O)c(O)c3)O[C@H](CO[C@@H]3O[C@H](CO)[C@@H](O)[C@H](O)[C@H]3O)[C@H]2OC(=O)/C=C/c2ccc(O)c(O)c2)[C@H](O)[C@H](O)[C@H]1O [echinacoside] | increased | increased | increased to twice as much as that of the control
2 | C[C@@H]1O[C@@H](O[C@@H]2[C@@H](O)[C@H](OCCc3ccc(O)c(O)c3)O[C@H](CO)[C@H]2OC(=O)/C=C/c2ccc(O)c(O)c2)[C@H](O)[C@H](O)[C@H]1O [acteoside] | increased | – | increased
